From paper PMC8286840, “Identifying SARS-CoV-2 antiviral compounds by screening for small molecule inhibitors of Nsp3 papain-like protease” (Biochemical Journal, 2021)
Where a name gives a salt, the structure may show the parent alone. Read-outs that look alike come from different tables or passages of the source.

Key:
[1] = biological target: T1, SARS-CoV-2 PLpro (nsp3 1564–1878) (Severe acute respiratory syndrome coronavirus 2, UniProt P0DTD1); test: biochemical; parameters: FRET-quenched peptide (Pro3) cleavage by PLpro, 10 min pre-incubation, slope over 20 min, normalised to no-compound control; conditions: read-out: % of control remaining
[2] = biological target: T1, SARS-CoV-2 PLpro (nsp3 1564–1878); test: biochemical; parameters: FRET-quenched peptide (Pro3) cleavage by PLpro, 10 min pre-incubation, slope over 20 min, normalised to no-compound control; conditions: read-out: % of control remaining; remark: listed apart in the source

## CNc1nccc(-c2cccnc2Oc2cc(C(=O)Nc3cccc(C(F)(F)F)c3)ccc2C)n1 [AMG-Tie2-1]
[1]; Well no.=2788, low concentration screen
  remaining activity at 1.25 µM: 97.1%
[2]; Well no.=2788, high concentration screen
  remaining activity at 3.75 µM: 94.9%

## c1cc(-c2cnn3cc(-c4ccc(OCCN5CCCCC5)cc4)cnc23)ccn1 [AMPK Inhibitor, Compound C]
[1]; Well no.=2324, low concentration screen
  remaining activity at 1.25 µM: 98.4%
[2]; Well no.=2324, high concentration screen
  remaining activity at 3.75 µM: 103%

## CC[C@H](C(=O)N1CCCC[C@H]1C(=O)O[C@H](CCc1ccc(OC)c(OC)c1)c1cccc(OCC(=O)O)c1)c1cc(OC)c(OC)c(OC)c1 [AP1867]
[1]; Well no.=6982, low concentration screen
  remaining activity at 1.25 µM: 103%
[2]; Well no.=6982, high concentration screen
  remaining activity at 3.75 µM: 100%

## CC[C@H](C(=O)N1CCCC[C@H]1C(=O)O[C@H](CCc1ccc(OC)c(OC)c1)c1cccc(OCC(=O)NCC(CNC(=O)COc2cccc([C@@H](CCc3ccc(OC)c(OC)c3)OC(=O)[C@@H]3CCCCN3C(=O)[C@@H](CC)c3cc(OC)c(OC)c(OC)c3)c2)CN(C)C)c1)c1cc(OC)c(OC)c(OC)c1 [AP20187]
[1]; Well no.=7174, low concentration screen
  remaining activity at 1.25 µM: 98.8%
[1]; Well no.=7696, low concentration screen
  remaining activity at 1.25 µM: 102%
[2]; Well no.=7174, high concentration screen
  remaining activity at 3.75 µM: 100%
[2]; Well no.=7696, high concentration screen
  remaining activity at 3.75 µM: 97.5%

## CC(C)OC(=O)N1CCC(Oc2ncnc3c2cnn3-c2ccc(S(C)(=O)=O)cc2F)CC1 [APD668]
[1]; Well no.=6274, low concentration screen
  remaining activity at 1.25 µM: 105%
[2]; Well no.=6274, high concentration screen
  remaining activity at 3.75 µM: 104%

## O=C(/C=C/c1cccnc1)NCCCCC1CCN(C(=O)c2ccccc2)CC1 [APO866 (FK866)]
[1]; Well no.=5123, low concentration screen
  remaining activity at 1.25 µM: 99%
[2]; Well no.=5123, high concentration screen
  remaining activity at 3.75 µM: 94.7%

## CCN(CC)c1ncnc2c1ncn2[C@@H]1O[C@H](COP(=O)(O)OP(=O)(O)C(Br)(Br)P(=O)(O)O)[C@@H](O)[C@H]1O [ARL 67156 trisodium salt]
[1]
  remaining activity at 1.25 µM: 96%
[2]
  remaining activity at 3.75 µM: 96.3%

## CNC(=O)c1ccc(N2C(=S)N(c3cnc(C#N)c(C(F)(F)F)c3)C(=O)C23CCC3)cc1F [ARN-509]
[1]; Well no.=5169, low concentration screen
  remaining activity at 1.25 µM: 105%
[2]; Well no.=5169, high concentration screen
  remaining activity at 3.75 µM: 101%

## C[C@@H]1COC(Nc2ccc3ncnc(Nc4ccc(OCc5nccs5)c(Cl)c4)c3c2)=N1 [ARRY334543]
[1]; Well no.=5073, low concentration screen
  remaining activity at 1.25 µM: 102%
[2]; Well no.=5073, high concentration screen
  remaining activity at 3.75 µM: 106%

## O=C1NC(=O)/C(=C/c2ccc(-c3ccc(F)cc3O)o2)S1 [AS-252424]
[1]; Well no.=2947, low concentration screen
  remaining activity at 1.25 µM: 93.9%
[2]; Well no.=2947, high concentration screen
  remaining activity at 3.75 µM: 97.2%

## C=CC(=O)Nc1ccc2ncnc(Nc3ccc(OCc4cccc(F)c4)c(Cl)c3)c2c1 [AST-1306]
[1]; Well no.=5142, low concentration screen
  remaining activity at 1.25 µM: 101%
[2]; Well no.=5142, high concentration screen
  remaining activity at 3.75 µM: 100%

## Clc1ccc(C2(c3ccc(-c4cn[nH]c4)cc3)CCNCC2)cc1 [AT7867]
[1]; Well no.=5295, low concentration screen
  remaining activity at 1.25 µM: 95.9%
[2]; Well no.=5295, high concentration screen
  remaining activity at 3.75 µM: 96.7%

## O=C(Nc1c[nH]nc1-c1nc2ccc(CN3CCOCC3)cc2[nH]1)NC1CC1 [AT9283]
[1]; Well no.=2884, low concentration screen
  remaining activity at 1.25 µM: 93.2%
[2]; Well no.=2884, high concentration screen
  remaining activity at 3.75 µM: 95.8%

## CC(C)c1cc(C(=O)N2Cc3ccc(CN4CCN(C)CC4)cc3C2)c(O)cc1O [AT13387]
[1]; Well no.=5061, low concentration screen
  remaining activity at 1.25 µM: 95%
[2]; Well no.=5061, high concentration screen
  remaining activity at 3.75 µM: 99.9%

## CN[C@@H](C)C(=O)N[C@H]1CN(C(=O)CC(C)C)CC[C@H]2CC[C@@H](C(=O)NC(c3ccccc3)c3ccccc3)N2C1=O [AT-406]
[1]; Well no.=5071, low concentration screen
  remaining activity at 1.25 µM: 102%
[2]; Well no.=5071, high concentration screen
  remaining activity at 3.75 µM: 106%

## O=C(NC1CCNCC1)c1n[nH]cc1NC(=O)c1c(Cl)cccc1Cl [AT-7519]
[1]; Well no.=2836, low concentration screen
  remaining activity at 1.25 µM: 97.9%
[2]; Well no.=2836, high concentration screen
  remaining activity at 3.75 µM: 98.3%

## O=C(NC(NC(=S)Nc1ccc(F)c([N+](=O)[O-])c1)C(Cl)(Cl)Cl)C(c1ccccc1)c1ccccc1 (stereo not shown) [ATM/ATR Kinase Inhibitor]
[1]; Well no.=2312, low concentration screen
  remaining activity at 1.25 µM: 98.2%
[2]; Well no.=2312, high concentration screen
  remaining activity at 3.75 µM: 98.3%

## CCNC(=O)c1noc(-c2cc(C(C)C)c(O)cc2O)c1-c1ccc(CN2CCOCC2)cc1 [AUY922 (NVP-AUY922)]
[1]; Well no.=5005, low concentration screen
  remaining activity at 1.25 µM: 103%
[2]; Well no.=5005, high concentration screen
  remaining activity at 3.75 µM: 102%

## COc1ccc2c(c1)C(c1ccc(F)cc1)=C(CN1CCCC1)CO2 [AX-024 hydrochloride]
[1]; Well no.=6930, low concentration screen
  remaining activity at 1.25 µM: 97%
[2]; Well no.=6930, high concentration screen
  remaining activity at 3.75 µM: 95.2%

## Cc1ccc(NC(=O)c2cccc(C(C)(C)C#N)c2)cc1Nc1ccc2ncn(C)c(=O)c2c1 [AZ628]
[1]; Well no.=5037, low concentration screen
  remaining activity at 1.25 µM: 88.5%
[2]; Well no.=5037, high concentration screen
  remaining activity at 3.75 µM: 94.3%

## Cc1cc(N2C[C@@H](C)N[C@@H](C)C2)ncc1-c1ccc(-c2nc3c(ccn3C)c(=O)[nH]2)cc1 [AZ6102]
[1]; Well no.=8482, low concentration screen
  remaining activity at 1.25 µM: 97.8%
[2]; Well no.=8482, high concentration screen
  remaining activity at 3.75 µM: 96.4%

## COc1cc(OC2CCN(C)CC2)ccc1Nc1ncc2c(n1)n(C1CCCC1)c(=O)n2C [AZ 3146]
[1]; Well no.=5029, low concentration screen
  remaining activity at 1.25 µM: 102%
[2]; Well no.=5029, high concentration screen
  remaining activity at 3.75 µM: 101%

## Cc1cc(Nc2nc(N[C@@H](C)c3ccc(F)cc3)c(C#N)cc2F)n[nH]1 [AZ-960]
[1]; Well no.=2980, low concentration screen
  remaining activity at 1.25 µM: 93.6%
[2]; Well no.=2980, high concentration screen
  remaining activity at 3.75 µM: 92.7%

## CC(=O)Nc1cccc2c1c(Sc1ccc(Cl)cc1)c(C)n2CC(=O)O [AZD1981]
[1]; Well no.=7131, low concentration screen
  remaining activity at 1.25 µM: 98.7%
[2]; Well no.=7131, high concentration screen
  remaining activity at 3.75 µM: 95.7%

## CNC(=O)c1cccc(-c2ccc3c(N4CCOC[C@@H]4C)nc(N4CCOC[C@@H]4C)nc3n2)c1 [AZD2014]
[1]; Well no.=5115, low concentration screen
  remaining activity at 1.25 µM: 106%
[2]; Well no.=5115, high concentration screen
  remaining activity at 3.75 µM: 107%

## COc1nccnc1NS(=O)(=O)c1cccc(Cl)c1Cl [AZD2098]
[1]; Well no.=8225, low concentration screen
  remaining activity at 1.25 µM: 102%
[2]; Well no.=8225, high concentration screen
  remaining activity at 3.75 µM: 98.6%

## COC1CCN(C(=O)c2cc(Cc3n[nH]c(=O)c4ccccc34)ccc2F)CC1 [AZD2461]
[1]; Well no.=5172, low concentration screen
  remaining activity at 1.25 µM: 105%
[2]; Well no.=5172, high concentration screen
  remaining activity at 3.75 µM: 102%

## COc1cc(CCc2cc(NC(=O)c3ccc(N4C[C@@H](C)N[C@@H](C)C4)cc3)n[nH]2)cc(OC)c1 [AZD4547]
[1]; Well no.=5125, low concentration screen
  remaining activity at 1.25 µM: 101%
[2]; Well no.=5125, high concentration screen
  remaining activity at 3.75 µM: 93.9%

## Cc1cc(-c2nnc(N)nc2-c2ccc(F)cc2)cc(Cl)n1 [AZD4635]
[1]; Well no.=8355, low concentration screen
  remaining activity at 1.25 µM: 98.3%
[2]; Well no.=8355, high concentration screen
  remaining activity at 3.75 µM: 96%

## CN[C@@H](C)C(=O)N[C@H](C(=O)N1CCC[C@H]1C(=O)N[C@H]1c2ccccc2C[C@H]1OCC#CC#CCO[C@@H]1Cc2ccccc2[C@@H]1NC(=O)[C@@H]1CCCN1C(=O)[C@@H](NC(=O)[C@H](C)NC)C1CCCCC1)C1CCCCC1 [AZD5582]
[1]; Well no.=6358, low concentration screen
  remaining activity at 1.25 µM: 102%
[1]; Well no.=8416, low concentration screen
  remaining activity at 1.25 µM: 98.4%
[2]; Well no.=6358, high concentration screen
  remaining activity at 3.75 µM: 101%
[2]; Well no.=8416, high concentration screen
  remaining activity at 3.75 µM: 93.5%

## Cn1cnc2c(F)c(Nc3ccc(Br)cc3Cl)c(C(=O)NOCCO)cc21 [AZD6244]
[1]; Well no.=3028, low concentration screen
  remaining activity at 1.25 µM: 95.9%
[2]; Well no.=3028, high concentration screen
  remaining activity at 3.75 µM: 95.3%

## CN(C)C(=O)c1ccc(S(=O)(=O)c2ccc(NC(=O)[C@@](C)(O)C(F)(F)F)c(Cl)c2)cc1 [AZD7545]
[1]; Well no.=8528, low concentration screen
  remaining activity at 1.25 µM: 101%
[2]; Well no.=8528, high concentration screen
  remaining activity at 3.75 µM: 98.2%

## NC(=O)Nc1cc(-c2cccc(F)c2)sc1C(=O)N[C@H]1CCCNC1 [AZD7762]
[1]; Well no.=2691, low concentration screen
  remaining activity at 1.25 µM: 94.4%
[2]; Well no.=2691, high concentration screen
  remaining activity at 3.75 µM: 95%
